Here are results for 37 compounds from PubChem BioAssay AID2842 (Southern Research Institute, 2010).

This experiment concerns M. tuberculosis H37Rv growth inhibition. The experiment is described as follows: Mycobacterium tuberculosis H37Rv growth inhibition, putative kinase inhibitor library, confirmatory dose response (AID 2842).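 Also: bacteria incubated one week before Alamar blue readout.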

Structures are written as SMILES. Converted amounts (≈) assume the structure as drawn.

A word on the IC90: it is the point of the concentration-response curve where the effect stands at 90%. On to `CCc1ccc(Nc2ncnc3c2cnn3-c2ccc(C)cc2C)cc1`, for which the IC90 was 6.47 mg/L (≈ 18.8 µM).
In the case of `Cc1ccc(C2C=C(c3ccc(Cl)cc3)Nc3ncnn32)cc1` (configuration not stated), the IC90 is 6.94 mg/L (≈ 21.5 µM).
Next, `COC(=O)c1c(NC(=O)c2ccc3c(c2)CCCC3)sc2c1CCN(C(C)=O)C2`: 6.21 mg/L (≈ 15.1 µM); `O=[n+]1c2ccccc2n([O-])c2ccccc21`: 3.52 mg/L (≈ 16.6 µM).
As to `CC1Cc2cc(-c3nn(-c4ccccc4)cc3/C=C3\SC(=S)NC3=O)ccc2O1` (configuration not stated), the concentration for an effect of 90% (IC90) is 1.79 mg/L (≈ 4.27 µM).
Next, `O=C(Nc1nnc(-c2ccc3c(c2)OCCO3)o1)c1ccccc1Oc1ccccc1`: 3.77 mg/L (≈ 9.08 µM); `COc1ccc(Cl)c2sc(N(CCCn3ccnc3)C(=O)c3cccs3)nc12`: 1.72 mg/L (≈ 3.97 µM); `O=C(Nc1nnc(-c2ccccc2Cl)o1)C1=COCCO1`: 4.3 mg/L (≈ 14 µM).
Consider `COc1ccc(CC2S/C(=N/N=C/c3ccccc3O)NC2=O)cc1` (configuration not stated), for which the 90% effect concentration (IC90) was < 0.2 mg/L.
Next, `Cc1ccc(-c2nnc(NC(=O)c3ccc(Cl)cc3Cl)o2)c(C)c1`: 4.12 mg/L (≈ 11.4 µM).
Consider `CC(C)(C)/C(O)=C(/C#N)c1nc2ccccc2[nH]1`, for which the IC90 is 16.6 mg/L (≈ 68.6 µM).
Next, `CC(C)CCn1c(NCCc2ccccc2)nc2c1c(=O)n(C)c(=O)n2C`: 11 mg/L (≈ 29.9 µM); `O=C(Nc1nnc(-c2cccs2)o1)c1nc2ccccc2s1`: 2.98 mg/L (≈ 9.07 µM); `COc1ccccc1C(=O)Nc1nnc(-c2ccc(F)cc2)o1`: 34.9 mg/L (≈ 111 µM).
Next, `O=C(Nc1nnc(-c2ccccc2)o1)c1ccc2c(c1)CCCC2`: 15.5 mg/L (≈ 48.7 µM); `CCOC(=O)c1c(NC(=O)c2ccccc2Br)sc2c1CC(C)(C)NC2(C)C`: 8.85 mg/L (≈ 19 µM); `O=C(CSc1nnc2ccc(-c3cccc([N+](=O)[O-])c3)nn12)Nc1cccc(C(F)(F)F)c1`: 3.34 mg/L (≈ 7.04 µM).
With `O=C(Nc1nnc(-c2ccc(Cl)cc2)o1)c1cc2ccccc2oc1=O`, the IC90 was 18.2 mg/L (≈ 49.4 µM).
Regarding `OCCN1CCN(c2ncnc3c2cnn3-c2ccc(Cl)c(Cl)c2)CC1`, the 90% effect concentration (IC90) was 14.9 mg/L (≈ 38 µM).
As for `CCC(=O)Nc1nnc(-c2ccc(Cl)s2)o1`, the concentration for an effect of 90% (IC90) was 8.62 mg/L (≈ 33.4 µM).
For the compound `O=C(NC1NC(c2ccccc2)=CS1)c1ccc([N+](=O)[O-])s1` (configuration not stated), the IC90 was 3.42 mg/L (≈ 10.3 µM).
Next, `CC(C)Cn1c(N2CCN(Cc3ccc(Cl)c(Cl)c3)CC2)nc2c1c(=O)[nH]c(=O)n2C`: 1.43 mg/L (≈ 3.07 µM).
For the compound `COc1ccccc1Cn1cc2c(-c3ccc(Cl)cc3)nnc-2c2ccccc21`, the 90% effect concentration (IC90) is 8.89 mg/L (≈ 22.2 µM).
For the compound `O=C(NCCSc1c[nH]c2ccccc12)c1cc2ccccc2oc1=O`, the IC90 is 1.58 mg/L (≈ 4.34 µM).
For `CC1CCN(S(=O)(=O)c2ccc(C(=O)Nc3nnc(-c4cc(Cl)ccc4Cl)o3)cc2)CC1` the value was 35.4 mg/L (≈ 71.5 µM); for `O=C(Nc1nnc(-c2ccco2)o1)C1CCCCC1`, 50.4 mg/L (≈ 193 µM).
In the case of `O=C(Nc1nnc(-c2cccnc2)o1)c1cc(Cl)ccc1Cl`, the IC90 is 27.9 mg/L (≈ 83.1 µM).
Next, `CC(C)c1ccc(OCC(=O)Nc2nccs2)cc1`: 6.88 mg/L (≈ 24.9 µM); `COc1ccc2c(c1)c(=O)c(C(=O)c1ccc(Cl)cc1)cn2Cc1ccccc1`: 6.44 mg/L (≈ 15.9 µM).
Next, `Cc1ccc2sc(N(CCCn3ccnc3)C(=O)c3ccc(F)cc3)nc2c1C`: 3.68 mg/L (≈ 9.01 µM).
For `Cc1cc(C)c2sc(NNC(=O)c3nc4ccccc4s3)nc2c1` the value was 15.5 mg/L (≈ 43.7 µM); for `COC(=O)c1ccc(NC(=O)CSc2nc(-c3ccccc3C)ns2)cc1`, 0.79 mg/L (≈ 1.98 µM); for `Cc1cn2c3c(=O)[nH]c(=O)n(C)c3nc2n1CCCN(C)Cc1ccccc1`, 2.62 mg/L (≈ 6.89 µM).
Take `CCN(CC)S(=O)(=O)c1ccc(C(=O)Nc2sccc2C(=O)NC(=O)OC)cc1`: the IC90 is < 0.2 mg/L.
For `O=c1cnnc(N/N=C/c2cc(Br)ccc2O)[nH]1`, the IC90 is < 0.2 mg/L.
Regarding `O=C(Nc1cccc(C(F)(F)F)c1)NC1CC(=O)N(c2ccc(F)cc2)C1` (configuration not stated), the IC90 was 13.2 mg/L (≈ 34.6 µM).
For `CC(C)OC(=O)COc1ccc2cc(-c3ccccc3)c(=O)oc2c1` the value was 2.97 mg/L (≈ 8.78 µM).
